Several values for one entry are separate records, joined by “and”; a condition that tells them apart may be missing. Equal values may be shown once.
System: LRF (luteinizing hormone releasing factor) induced luteinizing hormone (LH) release
Experiment: LRF antagonist activity in vitro in rat anterior pituitary cell cultures
Type: cell-based
Conditions: LRF alone 3.5×10^-10 Molar (LRF Control)
Description: Octapeptides of this invention were screened for LRF antagonist activity in vitro using rat anterior pituitary cell cultures as described by Vale et. al. [Endocrinology, 91, 562 (1972)]. The inhibition of LRF (luteinizing hormone releasing factor) induced luteinizing hormone (LH) release into the culture medium is the endpoint in this in vitro bioassay.

For “LRF Control: luteinizing hormone releasing factor, the stimulus whose LH release the octapeptides inhibit; also called luteinizing hormone releasing hormone (QHWSYGLRPG; Gonadoliberin-1; UniProt P01148 24-33, looked up)”, the “LH Value” was 63.90 ng/mL and 64.13 ng/mL and 40.01 ng/mL.
